Earlier results, collected in US8088935B2, “Compounds and methods for the treatment of asthma” (Ironwood Pharmaceuticals, Inc., priority 2003, dated 2012).

Columns and labels:
[1] = toxicity studies

Question: Which acute toxicity [1] does the source give for `O=C(O)c1cc(=O)c2c(OCC(O)COc3cccc4oc(C(=O)O)cc(=O)c34)cccc2o1` [Cromolyn, disodium cromoglycate] here?
Answer: impressively low order of acute toxicity

Question: And the biologic half-life (in vivo)?
Answer: 46-99 minutes

Question: And the “Peak plasma levels occur (time)” value (inhaled)?
Answer: ≤ 15 min
